Experimental data as given in patent publication US20240369511A1, “INTEGRATED ELECTROCHEMICAL APTASENSORS FOR MEASURING CELL DEATH AND CYTOKINE ACTIVITY FROM INTACT TISSUE SAMPLES” (University of Washington, priority 2023, published 2024).

What was measured:
[1] = tested on: cuboids from a human colorectal tumor biopsy; assay: CytC in supernatant of drug-treated human tumor cuboids, aptasensor platform; assay type: cell-based; details: three days treatment; Staurosporine 1 μM, FOLFOX 1 μg/mL 5FU+1 μg/mL Oxaliplatin, FOLFIRI 5FU+Irinotecan
Method: (§1) Measurement of CytC from the supernatant of human microdissected cancer tissue cultured with drugs using the aptasensor platform. A study was conducted to assess the aptasensor platform's ability to quantify CytC secretion from human cuboids after drug treatments for three days in culture with Staurosporine, FOLFOX (a combination of fluorouracil and oxaliplatin), and FOLFIRI (a combination of fluorouracil and irinotecan), in comparison to the dimethyl sulfoxide (DMSO) vehicle control. Uniform-sized cuboids were prepared from a human colorectal tumor biopsy. Each drug condition was prepared in duplicate. Subsequently, the supernatants were collected and the level of CytC released from the cuboids after cell death was measured using the aptasensor platform. To validate the platform's measurements, the results were compared with those obtained from ELISA (FIG. 4D). […] In some cases, the platform even indicated higher production rates. Duplicates for both the sensor and for the ELISA were consistent. […] While the trend in measurements for supernatant 1 and supernatant 2 was similar between sensor reading and ELISA, the higher concentration observed in sensor readings may stem from variations in the sensor-specific calibration curves.
(§2) Human colorectal cancer tumor supernatant. Colorectal tumor biopsy was obtained from a person with metastatic cancer who had been off treatment for a year. […]

[2] = tested on: cuboids from a human colorectal tumor biopsy; assay: CytC in supernatant of drug-treated human tumor cuboids, ELISA; assay type: cell-based; details: three days treatment; duplicated supernatant samples; same drug concentrations
Method: as §1, §2

SMILES: CN[C@@H]1C[C@H]2O[C@@](C)([C@@H]1OC)n1c3ccccc3c3c4c(c5c6ccccc6n2c5c31)C(=O)NC4 [Staurosporine]
- CytC production relative to DMSO control vehicle (aptasensor platform) [1]: ~3 fold
- CytC production relative to DMSO control vehicle (ELISA) [2]: 4.23 fold
